Values of other authors, collected in patent US8263638B2, “Dosing regimens for ion channel modulating compounds” (priority 2004, dated 2012).
Like-named read-outs stand apart in the source and are kept apart here.

Tested on: rabbit Purkinje fibers
Conditions: cited from earlier work

**Q.** Which “increase of APD90” value (10 nM, rabbit Purkinje fibers, BCL=1000 ms) does the source give for CN(CCOc1ccc(NS(C)(=O)=O)cc1)CCc1ccc(NS(C)(=O)=O)cc1 [dofetilide] here?
**A.** 83%

**Q.** Which “increase of APD90” value (10 μM, rabbit) does the source give for C=C[C@H]1C[N@@]2CC[C@H]1C[C@@H]2[C@@H](O)c1ccnc2ccc(OC)cc12 [quinidine] here?
**A.** 93%
